The text below walks through data of the NIST ThermoML archive (doi:10.1021/je400884v).

The data set can be described thus: an = ratio of the nth substance listed. Particulars: 101 kPa, Liquid, Pycnometric method.

± gives the expanded uncertainty stated by the source.

With `OCCCCO` [1,4-butanediol] + C[N+](C)(C)CCO.[Cl-], the mass density worked out at 1044.5 ± 1.7 kg/m3 (293.15 K, a2 = 0.25); 1052.4 ± 1.7 kg/m3 (293.15 K, a2 = 0.33); 1041.1 ± 1.7 kg/m3 (303.15 K, a2 = 0.25); 1049 ± 1.7 kg/m3 (303.15 K, a2 = 0.33); 1035.4 ± 1.7 kg/m3 (313.15 K, a2 = 0.25); 1043.2 ± 1.7 kg/m3 (313.15 K, a2 = 0.33). Besides, the mass density by setting is: (323.15 K, a2 = 0.25) 1030.6 ± 1.7 kg/m3; (323.15 K, a2 = 0.33) 1038.4 ± 1.7 kg/m3.

Turning to `CC(O)C(C)O` (centres undefined) [2,3-butanediol] + C[N+](C)(C)CCO.[Cl-], the mass density is 1035 ± 1.7 kg/m3 (293.15 K, a2 = 0.25); 1046.8 ± 1.7 kg/m3 (293.15 K, a2 = 0.33); 1030.9 ± 1.7 kg/m3 (303.15 K, a2 = 0.25); 1039 ± 1.7 kg/m3 (303.15 K, a2 = 0.33); 1026.5 ± 1.7 kg/m3 (313.15 K, a2 = 0.25); 1035.7 ± 1.7 kg/m3 (313.15 K, a2 = 0.33). The mass density came to 1019.7 ± 1.7 kg/m3 (323.15 K, a2 = 0.25) and 1030 ± 1.7 kg/m3 (323.15 K, a2 = 0.33).

Turning to `C[N+](C)(C)CCO.[Cl-]` [choline chloride] + CC(O)CO, the mass density reads like this: (293.15 K, a1 = 0.25) 1066.3 ± 1.7 kg/m3; (293.15 K, a1 = 0.33) 1066.6 ± 1.7 kg/m3; (303.15 K, a1 = 0.25) 1060.2 ± 1.7 kg/m3; (303.15 K, a1 = 0.33) 1059.9 ± 1.7 kg/m3; (313.15 K, a1 = 0.25) 1054.1 ± 1.7 kg/m3; (313.15 K, a1 = 0.33) 1053.3 ± 1.7 kg/m3. Moreover, the mass density is, setting by setting: (323.15 K, a1 = 0.25) 1048 ± 1.7 kg/m3; (323.15 K, a1 = 0.33) 1046.7 ± 1.7 kg/m3.

In general, mass density refers to the mass of a sample divided by its volume.
